# Experimental data from PubChem BioAssay (NCI).
# Several values for one entry are separate records, joined by “and”; a condition that tells them apart may be missing. Equal values may be shown once.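 Grown in 96-well plates, cells were treated for 48 hours with each compound at five concentrations. Insufficient inhibition: endpoint recorded as highest concentration tested. Here, GI50 denotes the concentration required for 50% inhibition of growth. TGI denotes the concentration required for complete inhibition of growth.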
# Assays:
# Assay in all cases: NCI anticancer screen, dose series, 48 h
# 786-0 renal = test system: 786-0 renal
# A498 renal = test system: A498 renal
# ACHN renal = test system: ACHN renal
# LOX IMVI melanoma = test system: LOX IMVI melanoma
# SN12C renal = test system: SN12C renal
# SNB-75 CNS = test system: SNB-75 CNS
# HCT-116 colon = test system: HCT-116 colon
# HS 578T breast = test system: HS 578T breast
# MCF7 breast = test system: MCF7 breast
# MDA-MB-435 = test system: MDA-MB-435
SMILES,TGI (786-0 renal) [µM],TGI (A498 renal),TGI (ACHN renal) [µM],TGI (LOX IMVI melanoma) [µM],TGI (SN12C renal) [µM],TGI (SNB-75 CNS) [µM],GI50 (786-0 renal) [µM],GI50 (A498 renal),GI50 (ACHN renal) [µM],GI50 (HCT-116 colon) [µM],TGI (HCT-116 colon) [µM],GI50 (HS 578T breast) [µM],TGI (HS 578T breast) [µM],GI50 (LOX IMVI melanoma) [µM],GI50 (MCF7 breast) [µM],TGI (MCF7 breast) [µM],GI50 (SN12C renal) [µM],GI50 (SNB-75 CNS) [µM],GI50 (MDA-MB-435) [µM],TGI (MDA-MB-435) [µM]
C=CCNC(=O)N(CCCCC(NC(C)=O)C(=O)NCc1ccccc1)Cc1ccccc1 (stereo unspecified),> 100,> 100 µM,> 100,> 100,> 100,> 100,,,,,,,,,,,,,,
CC[C@@H]1c2c(C#N)ncn2-c2cnc(Nc3ccc(C(=O)NC4CCN(C5CCN(CC6CC6)CC5)CC4)cc3OC)nc2N1C1CCCC1,1.2,1.17 µM and 1.57 µM,1.93,1.06,1.91,1.26,0.164,0.174 µM and 0.308 µM,0.625,0.0313,1.19,0.069,1.78,0.0368,0.00514,1.2,0.0916,0.0452,,
OC(Cc1ccncc1)C(Cl)(Cl)Cl (stereo unspecified),> 100,,> 100,> 100,> 100,> 100,> 100,,> 100,,,> 100,> 100,> 100,> 100,> 100,> 100,> 100,> 100,> 100
CN(O)C(=O)SCC(NC(=O)CCC(N)C(=O)O)C(=O)NCC(=O)O (stereo unspecified),> 2000,> 2000 µM,> 2000,> 2000,> 2000,> 2000,> 2000,> 2000 µM,> 2000,> 2000,> 2000,,,668,,,> 2000,> 2000,,
CN1CCC2(CC1)ONC1=NCCN12,53.8,> 100 µM,74.5,,40.2,> 100,15.4,41.4 µM,23.7,32.4,> 100,,,,23,87.1,15.8,66.8,80.6,> 100
COc1cc(Br)c(C=Nc2cccc3cc(OC)c(OC)cc23)cc1OC,> 100,,> 100,> 100,> 100,59,,,,,> 100,,,,,,,,,
Cc1nnn[n-]1.N.N.N.N.N.[Cl-].[Co+3],> 100,72 µM,> 100,> 100,> 100,> 100,> 100,4.14 µM,> 100,> 100,> 100,,,> 100,,,> 100,> 100,,
O=C(O)CCC(=O)N1c2ccccc2CC1c1c[nH]c2ccccc12 (stereo unspecified),> 100,> 100 µM,> 100,> 100,> 100,> 100,,,,,> 100,,,,,,,,,
C=C1C(=O)O[C@@H]2C[C@@H](C)[C@@H]3C=CC(=O)[C@@]3(C)[C@@H](O)[C@H]12,5.4,3.52 µM,6.33,2.01,2.91,2.58,,,,,4.06,,,,,2.3,,,,3.39
O=C(O)C1=C(O)C(C(=O)O)C23CCCCCCCCCCC12C(C(=O)O)C(O)=C3C(=O)O (stereo unspecified),> 100,,> 100,,> 100,,,,,,,,,,,,,,,
O/N=C1/C(=C/c2ccc3c(c2)OCO3)CCCC1C(NO)c1ccc2c(c1)OCO2 (stereo unspecified),96.3,79 µM,> 100,,40.9,80.1,,,,,31.9,,,,,,,,,
O=C(NCCCCNc1cccccc1=O)OCc1ccccc1,> 100,> 100 µM,> 100,> 100,> 100,> 100,,,,,> 100,,,,,,,,,
COC(=O)NC(=O)c1cn(C2OC(CO)C(O)C2O)c(=O)[nH]c1=O (stereo unspecified),> 100,,> 100,> 100,> 100,> 100,,,,,> 100,,,,,,,,,
CC1(C)O[C@H]2[C@H](O)C[C@](O)(CO)C[C@H]2O1,> 100,,> 100,,> 100,> 100,,,,,> 100,,,,,,,,,
O=C(COc1ccc(Cl)cc1)N1N=C(c2ccc(Cl)cc2)CC1(O)c1ccccc1 (stereo unspecified),28.3,26.5 µM,> 100,26.6,11.4,> 72.7,,,,,26.3,,,,,,,,,
CCCCCCCCCCCc1nnc(N)o1,> 100,,> 100,> 100,> 100,> 100,,,,,> 100,,,,,,,,,

SMILES,TGI (786-0 renal) [µM],TGI (A498 renal),TGI (ACHN renal) [µM],TGI (LOX IMVI melanoma) [µM],TGI (SN12C renal) [µM],TGI (SNB-75 CNS) [µM],GI50 (786-0 renal) [µM],GI50 (A498 renal),GI50 (ACHN renal) [µM],GI50 (HCT-116 colon) [µM],TGI (HCT-116 colon) [µM],GI50 (HS 578T breast) [µM],TGI (HS 578T breast) [µM],GI50 (LOX IMVI melanoma) [µM],GI50 (MCF7 breast) [µM],TGI (MCF7 breast) [µM],GI50 (SN12C renal) [µM],GI50 (SNB-75 CNS) [µM],GI50 (MDA-MB-435) [µM],TGI (MDA-MB-435) [µM]
CCOC(=O)/C(C=Nc1ccc(-c2nc3ccccc3[nH]2)cc1)=C(/C)O,23.5,,42.4,16.5,> 50,,11,,15.4,7.82,14.5,11.4,30.5,9.13,11.7,> 50,14.5,,14.9,43.4
NC(=O)C(=O)N/N=C1\C(=O)N(c2ccc(Cl)cc2Cl)C(=O)C1C(=O)Nc1ccc(Cl)cc1Cl (stereo unspecified),> 100,> 100 µM,> 100,> 100,> 100,> 100,,,,,> 100,,,,,,,,,
Cc1cc(CC(=O)NCCO)n(CCO)c(=O)c1,> 100,,> 100,> 100,> 100,> 100,,,,,> 100,,,,,,,,,
CCN(CC)c1c(C(=O)/C=C/c2ccc(Cl)cc2)c(-c2ccccc2)nn(C)c1=O,3.5,4.44 µM,3.38,3.48,4.59,7.5,,,,,3.11,,,,,,,,,
N.N.N.N.N.NC(=O)c1nn[n-]n1.[Cl-].[Co+3],> 100,,> 100,> 100,> 100,> 100,> 100,,> 100,> 100,> 100,,,> 100,,,> 100,> 100,,
NS(=O)(=O)c1ccc(-n2nc(-c3ccc(Cl)cc3)cc2-c2cc(O)ccc2O)cc1,16.7,,26.2,,20.6,,5.18,,13.4,,,34.2,78.9,,5.97,> 100,8.11,,11.7,28
O=[N+]([O-])c1ccc(C[P+](c2ccccc2)(c2ccccc2)c2ccccc2)cc1,> 100,> 100 µM,> 100,> 100,> 100,> 100,,,,,> 100,,,,,,,,,
CC1(C)C2CCC13C(=O)C1OC3(C2)C2C(=O)c3cc4ccccc4cc3C(=O)C12 (stereo unspecified),36.6,,26.3,,> 100,> 100,6,,10.4,12,> 100,53.7,> 100,,6.17,> 100,19.3,54.5,8.58,> 100
O=C1N(C2CCCCC2)CC12CCCCC2,> 100,> 100 µM,> 100,> 100,> 100,> 100,,,,,> 100,,,,,,,,,
CC1=C(c2ccccc2)C(c2ccccc2)=C(c2ccccc2)C2(c3ccccc3)C(=O)C(C)CN12 (stereo unspecified),> 100,> 100 µM,> 100,> 100,> 100,64.5,,,,,> 100,,,,,,,,,
CCOC(=O)C12CCCC1(O)N(NC(=O)OC(C)(C)C)C(C)=C2C(=O)OC (stereo unspecified),> 100,> 100 µM,> 100,> 100,> 100,,,,,,> 100,,,,,,,,,
CCCCCCCCNc1cc2c3c(c1)CCCN3CCC2,13.7,18.7 µM,17.7,28.5,14.7,10.8,3.31,4.2 µM,3.22,1.11,7.92,,,1.57,2.98,13,2.56,1.47,0.951,11.7
O=C(O)CCN(CCCCN(CCC(=O)O)CCC(=O)O)CCC(=O)O,> 100,> 100 µM,> 100,> 100,> 100,> 100,,,,,> 100,,,,,,,,,
N.N.N.N.[Co+3].[N-]=[N+]=[N-].[N-]=[N+]=[N-].[N-]=[N+]=[N-],> 100,> 100 µM,> 100,> 100,> 100,> 100,> 100,> 100 µM,52,85.5,> 100,,,> 100,,,> 100,> 100,,
CCc1ccccc1NC(=O)C1=C(C)NC(C)=C(C(=O)Nc2ccccc2CC)C1c1ccccc1Cl,> 100,> 100 µM,> 100,> 100,> 100,> 100,,,,,> 100,,,,,,,,,
Cc1cccc(/C=C/c2c(C(=O)/C=C/c3ccccc3)c(C)nc3ccccc23)c1,3.11,3.26 µM,2.97,2.93,3.5,2.95,1.62,1.77 µM,1.62,,,,,1.58,0.565,4.22,1.68,1.42,1.81,4.29
